The METLIN SMRT retention time set (Domingo-Almenara et al. 2019)

Assay: gradient 5% acetonitrile 3 min, to 50% in 2 min, to 85% in 15 min, held 3 min, 100 µL/min
Conditions: column: Zorbax Extend-C18 2.1 x 50 mm; eluents: water / acetonitrile, 0.1% formic acid
Outline: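 Pure standards were analyzed in mixtures of ~100 molecules using HPLC coupled to a quadrupole time-of-flight mass spectrometer, in both positive and negative ionization mode. Separation used a Zorbax Extend-C18 column (2.1 × 50 mm, 1.8 μm) at 100 μL/min, with water and acetonitrile each containing 0.1% formic acid. Dead and dwell volumes were 40 μL and 900 μL, and data were collected over 3 months. Retention time was read from computationally picked adduct peaks, each inspected manually.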

SMILES	RP-LC retention time
O=C(CSc1nnc(Cc2ccccc2)o1)N1CCOCC1	636 s
O=C(Cc1csc(NC(=O)c2ccsc2)n1)NCCOc1ccc(F)cc1	747 s
CC(C(=O)N1CCN(c2cc(-c3ccccc3)[nH]n2)CC1)c1ccccc1 (stereo not drawn)	824 s
CCCN1CCN(c2ncc3c(n2)CCN(Cc2cccc(OC)c2)C3)CC1	1120 s
O=C(Cn1ccn2nc(-c3ccc(F)cc3)c(CO)c2c1=O)Nc1ccc2c(c1)CCC2	908 s
CCc1noc2nc(C)n(CC(=O)NCc3ccccc3)c(=O)c12	753 s
CCOc1ccc(-c2ccc(=O)n(CCc3nc(-c4ccc(SC)cc4)no3)n2)cc1	1030 s
O=C(Nc1nccs1)c1cc(-c2ccncc2)nc2ccccc12	614 s
Cc1cc(Cl)ccc1NC(=O)N1CCCC1c1nnc2n1CCN(C)CC2 (stereo not drawn)	584 s
O=c1c(NCc2ccc(Cl)cc2)nccn1-c1ccc2c(c1)OCO2	923 s
COC(=O)CNC(=O)N1CCCC1c1ccccc1Cl (stereo not drawn)	754 s
Cc1ccc(-c2cc3c4nnc(CCC(=O)NCCCOC(C)C)n4ccn3n2)cc1C	759 s
CN(C)C(CNC(=O)C(=O)Nc1ccc(OC(F)(F)F)cc1)c1ccccc1Cl (stereo not drawn)	622 s
Cc1ccc(S(=O)(=O)c2cnc(N3CCc4ccccc4C3)nc2N)cc1C	1150 s
O=C(NC1CC1)c1ccc2c(c1)CCCN2S(=O)(=O)c1ccc(Cl)cc1	896 s
Cc1noc(C)c1-c1ccc(S(=O)(=O)N2CCCc3ccccc32)cc1	1060 s
Cn1c(CCCC(=O)O)nc2cc(N(CCCl)CCCl)ccc21	747 s
O=S(=O)(c1ccc2c(c1)CCCC2)N1CCCn2nc(-c3ccncc3)cc2C1	706 s
CCN1C(=O)COc2ccc(-c3csc(NC(=O)CCc4ccc(C)cc4)n3)cc21	1070 s
COC(=O)c1cc(C2CC2)nc2c1c(=O)n(Cc1cccc(Cl)c1)c(=O)n2C	1160 s
COc1ccc(OC)c(-c2[nH]ncc2CN2CC(F)(F)C[C@H]2CN2CCOCC2)c1	606 s
Cn1c(C(=O)N2CCC(C(=O)NCc3ccccc3Cl)CC2)cc2oc3ccccc3c21	978 s

SMILES	RP-LC retention time
COCC(C)(O)CNC(=O)c1ccc(F)c(F)c1 (stereo not drawn)	634 s
Cn1nnc2ccc(-c3noc(-c4ccccc4)n3)cc21	985 s
O=C(Nc1ccc2nncn2c1)c1ccc(Cl)cc1	719 s
O=C1CC(NC(=O)c2cc(-c3ccc(F)cc3)n[nH]2)CN1 (stereo not drawn)	604 s
CCOC(=O)Nc1ccc2nc(-c3cscn3)[nH]c2c1	651 s
O=C(CCc1c(-c2ccc(Br)cc2)nc2ccccn12)NCc1ccco1	660 s
O=C(NCc1ccncc1)c1sc2ncccc2c1-n1cccc1	592 s
CCn1ccc(C(=O)N2CCC3(CC2)c2nccn2-c2ccccc2CN3CC(C)C)n1	599 s
Cn1c(=O)c(C(=O)NCc2ccc(F)cc2Cl)nc2cccnc21	824 s
CC(C)c1noc(-c2cc(=O)n(CC(=O)Nc3cccc(C#N)c3)c3ccccc23)n1	967 s
Cc1cccc(-c2ncccc2CNS(=O)(=O)c2cc(F)ccc2C)c1	774 s
CC(C)NC(=O)C1CCN(C(=O)c2ncn3c2COC(c2ccccc2)C3)CC1 (stereo not drawn)	686 s
Cc1cc(C)n(-c2cc(Nc3ccc(F)cc3)ncn2)n1	1010 s
Cc1ccccc1CNC(=O)c1cc2n(n1)CC(C)(C(=O)NCc1ccccc1)N(C)C2=O (stereo not drawn)	769 s
Cc1nc(-c2cccc(-c3noc(C(=O)NCCCN4CCC(C)CC4)n3)c2)cs1	699 s
Cc1ccc(-c2cc3c4nnc(SCC(=O)Nc5cccc(Cl)c5C)n4ccn3n2)cc1C	1060 s
Cc1ccc(NC(=O)CCCN2C(=O)COc3ccc(C)cc32)c(C)c1	929 s
O=S(=O)(NC1CCCCCCC1)c1ccc2c(c1)-c1oncc1CO2	1030 s
CCOC(=O)c1cnc2nc(C)ccc2c1Nc1ccc2c(c1)OCO2	680 s
COc1cccc(CNC(=O)Cn2cccc2-c2nnc(-c3ccccc3)o2)c1	895 s
CCOC(=O)c1noc2nc(C)nc(NCc3ccccc3)c12	1060 s
O=C(NCc1cccc(Cl)c1)C1c2ccccc2CCN1C(=O)C1CC1 (stereo not drawn)	838 s

SMILES	RP-LC retention time
CCc1noc(NC(C)=O)c1-c1ccc(OC)c(S(=O)(=O)Nc2ccc(S(N)(=O)=O)cc2)c1	655 s
CNC(=O)[C@@H]1C[C@H](Oc2ccccc2)CN1C(=O)CCCc1c[nH]c2ccccc12	800 s
Cc1ccc(-n2c(=O)c3c(cc(C)n3C)n(CC(=O)Nc3ccc(Br)cc3F)c2=O)cc1	944 s
COc1ccc(-c2ccc(=O)n(Cc3nc(-c4ccc(C)cc4)no3)n2)cc1OC	925 s
Cc1cccc(C(=O)N2CCc3cc(CNC(=O)c4cc(-c5cccs5)[nH]n4)ccc32)c1	895 s
O=C(CCn1nnc2cc(-c3noc(-c4ccc(Cl)cc4)n3)ccc21)N1CCCC1	1010 s
Cn1nnc2cc(-c3noc(C4CC(=O)N(c5ccccc5)C4)n3)ccc21 (stereo not drawn)	788 s
O=C(c1ccco1)N1CCN(c2ccc(-c3noc(C4CC4)n3)cc2)CC1	864 s
COc1ccc(-c2nnc(-c3cc(S(=O)(=O)NCC4CCCO4)ccc3Cl)o2)cc1 (stereo not drawn)	917 s
CCC(=O)N1CCc2cc(N3CC(C(=O)Nc4ccc(C)cc4C)CC3=O)ccc21 (stereo not drawn)	742 s
CCc1ccc(C2=C(C)C(N3CCCN(C(=O)CC(C)(C)C)CC3)=NS2(=O)=O)cc1	949 s
COc1ccc2c(c1)C1(CCN(C(=O)c3ccccc3OC)C1)C(=O)N2 (stereo not drawn)	709 s
O=C(Nc1cc(Cl)ccc1Cl)C1CN(C(=O)c2ccc(F)c(F)c2)C1	862 s
O=C(CSc1nc(-c2cccc([N+](=O)[O-])c2)cs1)NCc1ccc2c(c1)OCO2	865 s
Cc1ccc(C)c(N2CCN(c3ccnc(SCC(=O)Nc4ccc(F)cc4C)n3)CC2)c1	1010 s
O=C(NCc1ccccc1Br)C1CCN(c2nnc(-c3ccccc3)o2)CC1	880 s
CCC1CN2C=Nc3oc(C)c(C(=O)NCc4ccccc4Cl)c3C2=N1 (stereo not drawn)	681 s
Cc1ccc(C(=O)Nc2cccc(C(F)(F)F)c2)cc1Nc1nc(-c2cccnc2)nc2c1cnn2C	788 s
COCCc1noc(-c2ccc(=O)n(CC(=O)Nc3cc(F)ccc3C)c2)n1	704 s
COCCNC(=O)c1cccnc1N1CCNC(c2ccccc2)C1 (stereo not drawn)	564 s
O=C(O)c1nnn(Cc2ccccc2F)c1-c1cccnc1	633 s
CCCn1c(=O)sc2cc(S(=O)(=O)N3CCC(C(=O)NCC4CCCO4)CC3)ccc21 (stereo not drawn)	763 s

SMILES	RP-LC retention time
Cc1nc(C(=O)Nc2cc(F)ccc2F)c(C)o1	998 s
COc1ccc(-c2nc(-c3ccc4oc(C)nc4c3)no2)c(C)c1	1170 s
O=C(Nc1ccc2ncnc(N3CCCC3)c2c1)c1cncc(Br)c1	639 s
CCOc1ccccc1N1CCN(C(=O)C2CCN(c3ncnc4c3oc3ccccc34)CC2)CC1	814 s
CC(C(=O)N1CCN(c2ccccn2)CC1)N1Cc2ccccc2C1=O (stereo not drawn)	587 s
Cc1ccc(-c2noc(-c3ccccc3S(=O)(=O)NCCN3CCC(C)CC3)n2)cc1	771 s
Cc1nnc(C2CCCCCN2S(=O)(=O)c2ccccc2F)o1 (stereo not drawn)	816 s
CCN1C(=O)COc2ccc(-c3csc(NC(=O)c4ccco4)n3)cc21	840 s
NS(=O)(=O)c1ccc(CNC(=O)c2coc(NC(=O)c3cnccn3)n2)cc1	560 s
Cc1ccccc1-c1noc(C2CC(=O)N(c3ccc4c(c3)OCO4)C2)n1 (stereo not drawn)	718 s
O=C(CCc1csc(NC(=O)c2ccccc2)n1)Nc1nc2ccc(Cl)cc2s1	970 s
CCNc1nc(N(CC)CC)nc(-n2cnc(SC)n2)n1	964 s
Cc1ccc2c(c1)N(S(C)(=O)=O)CCC(C(=O)NC1CC3CCC1C3)O2 (stereo not drawn)	941 s
Cc1ccc(C)c(N2CCN(C(=O)C3CCN(c4nccnc4Sc4ccccc4)CC3)CC2)c1	1320 s
COc1ccc(C(=O)N2CCC3(C2)C(=O)Nc2ccccc23)cc1OC (stereo not drawn)	657 s
Cc1ccc(C(=O)Nc2ccc(N3CCN(C4CCCC4)C3=O)nc2)cc1F	918 s
CCc1ccccc1NS(=O)(=O)c1cc(-c2[nH]ncc2C(=O)N(C)C)oc1C	729 s
CCC(C)C(NC(=O)c1ccc(F)c(Cl)c1)C(=O)Nc1nc2ccccc2[nH]1 (stereo not drawn)	817 s
Cn1cc(CC(=O)NCc2ccc(F)cc2Cl)c2cccnc21	727 s
CN1c2ccccc2C(=O)NC12CCN(C(=O)Nc1ccc(F)cc1)CC2	729 s
Cc1cccc(CNC(=O)CC2CCN(C(=O)c3[nH]c(C)cc3C)CC2)c1	794 s
Cc1noc(C)c1-c1ccc(S(=O)(=O)N2CCN(c3cccc(Cl)c3)CC2)cc1	1160 s
